Results from ChEMBL document CHEMBL4651402, “Screening of ~5500 FDA-approved drugs and clinical candidates for anti-SARS-CoV-2 activity” (2021).

Test system: SARS-CoV-2
Assay: microbe, parasite or virus in culture
Conditions: Severe acute respiratory syndrome coronavirus 2, Vero C1008, 48 h

Structure (SMILES)	IC50 [µM]	IC50 (read-out: pIC50 (converted)) [µM]
Nc1ccc(S(=O)(=O)Nc2ncccn2)cc1 [SULFADIAZINE]	> 20	> 20
CCCCCCCC(=O)N[C@H](CN1CCCC1)[C@H](O)c1ccc2c(c1)OCCO2	> 20	> 20
CCCCOC(=O)c1ccc(O)cc1 [BUTYLPARABEN]	> 20	> 20
O=C(Nc1nc2cccc(-c3ccc(CN4CCS(=O)(=O)CC4)cc3)n2n1)C1CC1 [FILGOTINIB]	> 20	> 20
CO[C@@]1(NC(=O)C2SC(=C(C(N)=O)C(=O)O)S2)C(=O)N2C(C(=O)O)=C(CSc3nnnn3C)CS[C@@H]21 (some centres undefined) [CEFOTETAN]	> 20	> 20
N=C(N)NC(=N)Nc1ccccc1 [PHENYL BIGUANIDE]	> 20	> 20
O=c1[nH]c2ccccc2n1C1CCN(CCOc2ccccc2)CC1 [OXIPEROMIDE]	> 20	> 20
CC(=O)O[C@H]1CC[C@@]2(C)C(=CC(=O)[C@@H]3[C@@H]2CC[C@]2(C)C(=O)CC[C@@H]32)C1	> 20	> 20
NC(=O)NNc1ccccc1 [PHENICARBAZIDE]	> 20	> 20
O=C(O)c1ccccc1O [SALICYLIC ACID]	> 20	> 20
COc1cc(Nc2ncc3c(n2)-c2ccc(Cl)cc2C(c2c(F)cccc2OC)=NC3)ccc1C(=O)O [ALISERTIB]	> 20	> 20
CC(C)n1nc(-c2cccc(Cl)c2Cl)c(N)nc1=N [PALATRIGINE]	> 20	> 20
CC(C)(C)NC(=O)N[C@H](C(=O)N1C[C@H]2[C@@H]([C@H]1C(=O)NC(CC1CCC1)C(=O)C(N)=O)C2(C)C)C(C)(C)C (some centres undefined) [BOCEPREVIR]	> 20	> 20
O=C(N[C@H]1CCS[C@H]2CCC[C@@H](C(=O)O)N2C1=O)[C@@H](S)Cc1ccccc1 [OMAPATRILAT]	> 20	> 20
CCN1CCC[C@H]1CNC(=O)c1c(OC)ccc(Br)c1OC [REMOXIPRIDE]	> 20	> 20
CCOC(=O)N(Cc1ccccc1)C1CC1 [ENCYPRATE]	> 20	> 20
C[C@@H](NCCc1ccc(O)cc1)[C@@H](O)c1ccc(O)cc1 [rel-RITODRINE]	> 20	> 20
Oc1ccc(OCc2ccccc2)cc1 [MONOBENZONE]	> 20	> 20
CC(C)N(CCNC(=O)CN1CCCC1=O)C(C)C	> 20	> 20

Structure (SMILES)	IC50 [µM]	IC50 (read-out: pIC50 (converted)) [µM]
C1CN1c1nc(N2CC2)nc(N2CC2)n1	> 20	> 20
NC(=O)C1c2ccccc2C=Cc2ccccc21 [CITENAMIDE]	> 20	> 20
NC(=O)CN1Cc2ccccc2OC1=O [CAROXAZONE]	> 20	> 20
CCC(NC(C)C)C(O)c1ccc(O)c2[nH]c(=O)ccc12 (centres undefined) [PROCATEROL]	> 20	> 20
COC(=O)/C(=C1/OC(=O)C(c2ccccc2)=C1O)c1ccccc1 [VULPINIC ACID]	> 20	> 20
COc1ccc2c(c1)CC[C@@H](CN(C)CC(=O)O)[C@H]2c1ccccc1	> 20	> 20
CCC(=O)OC1(c2ccccc2)CCN(C)CC1	> 20	> 20
CN1CCN(c2c(F)cc3c(=O)c(C(=O)O)cn(CCF)c3c2F)CC1 [FLEROXACIN]	> 20	> 20
CCC(=O)OCC(=O)[C@@]1(OC(=O)CC)[C@@H](C)C[C@H]2[C@@H]3CCC4=CC(=O)C=C[C@]4(C)[C@@]3(F)[C@@H](O)C[C@@]21C [BETAMETHASONE DIPROPIONATE]	> 20	> 20
CCCCCCCCCCCCCCCCOCCCOP(=O)(O)CO[C@H](C)Cn1cnc2c(N)ncnc21 [TENOFOVIR EXALIDEX]	> 20	> 20
CC(C)=CC1C(CO)C1(C)C (centres undefined) [CHRYSANTHEMYL ALCOHOL]	> 20	> 20
Cc1c(NC(=O)C(C)N(C)C)c(=O)n(-c2ccccc2)n1C (centres undefined)	> 20	> 20
Cn1cc(C(=O)[C@@H]2CCc3[nH]cnc3C2)c2ccccc21 [RAMOSETRON]	> 20	> 20
CC(C)=CCC[C@]1(C)C=Cc2c(O)c3c(c(CC=C(C)C)c2O1)O[C@]12C(=C[C@@H]4C[C@H]1C(C)(C)O[C@@]2(C/C=C(/C)C(=O)O)C4=O)C3=O [GAMBOGIC ACID]	> 20	> 20
CC1C(=O)OC2C(O)C34C5CC(C(C)(C)C)C36C(OC(=O)C6O)OC4(C(=O)O5)C12O (centres undefined)	> 20	> 20
N#C[C@@H]1C[C@@H]2C[C@@H]2N1C(=O)[C@@H](N)C12CC3CC(CC(O)(C3)C1)C2 [SAXAGLIPTIN ANHYDROUS]	> 20	> 20
Oc1ccc(Cl)cc1 [PARACHLOROPHENOL]	> 20	> 20
O=C(/C=C/c1ccc(O)c(O)c1)O[C@@H]1C[C@](O)(C(=O)O)C[C@@H](O)[C@H]1O [CHLOROGENIC ACID]	> 20	> 20
